Test results: publication PMC5218480 (PLoS ONE, 2017)

Test system: MV-4-11 cells
Test: Gene expression microarray analysis (Affymetrix PrimeView) and GSEA
Type: cell-based, human
Design: RFU PODN (11730768_x_at) / Fold change /veh PODN (11730768_x_at) / RFU LINC00158 (11744669_a_at) / Fold change /veh LINC00158 (11744669_a_at) / RFU DUSP10 (11751237_a_at) / Fold change /veh DUSP10 (11751237_a_at) / RFU ID3 (11757404_x_at) / Fold change /veh ID3 (11757404_x_at) / RFU PLEKHG5 (11737974_s_at) / Fold change /veh PLEKHG5 (11737974_s_at) / RFU LRRC4B (11730491_at) / Fold change /veh LRRC4B (11730491_at) / RFU GIMAP4 (11747438_a_at) / Fold change /veh GIMAP4 (11747438_a_at) / RFU KRT8 (11758183_x_at) / Fold change /veh KRT8 (11758183_x_at) / RFU CNN1 (11734310_a_at) / Fold change /veh CNN1 (11734310_a_at) / RFU VPS37D (11726825_at) / Fold change /veh VPS37D (11726825_at) / RFU C10orf10 (11716522_x_at) / Fold change /veh C10orf10 (11716522_x_at) / RFU KIR2DL2 /// KIR2DL4 /// KIR2DL5A /// KIR2DL5B /// KIR2DS1 /// KIR2DS2 /// KIR2DS3 /// KIR2DS4 /// KIR3DL3 /// KIR3DL3 /// KIR3DS1 (11738374_at) / Fold change /veh KIR2DL2 /// KIR2DL4 /// KIR2DL5A /// KIR2DL5B /// KIR2DS1 /// KIR2DS2 /// KIR2DS3 /// KIR2DS4 /// KIR3DL3 /// KIR3DL3 /// KIR3DS1 (11738374_at) / RFU C1QL1 (11718748_at) / Fold change /veh C1QL1 (11718748_at) / RFU TMPRSS4 (11747572_a_at) / Fold change /veh TMPRSS4 (11747572_a_at) / RFU HAMP (11756126_x_at) / Fold change /veh HAMP (11756126_x_at) / RFU RNFT2 (11725882_a_at) / Fold change /veh RNFT2 (11725882_a_at) / RFU NR4A2 (11747474_a_at) / Fold change /veh NR4A2 (11747474_a_at) / RFU ABCC12 (11746883_a_at) / Fold change /veh ABCC12 (11746883_a_at) / RFU TMEM136 (11760407_x_at) / Fold change /veh TMEM136 (11760407_x_at) / RFU CLDN22 /// WWC2 (11732394_at) / Fold change /veh CLDN22 /// WWC2 (11732394_at) / RFU HLA-DPB1 (11760878_x_at) / Fold change /veh HLA-DPB1 (11760878_x_at) / RFU SPINT1 (11716480_a_at) / Fold change /veh SPINT1 (11716480_a_at) / RFU GAP43 (11754022_s_at) / Fold change /veh GAP43 (11754022_s_at) / RFU A4GNT (11735810_at) / Fold change /veh A4GNT (11735810_at) / RFU PRB3 (11715151_x_at) / Fold change /veh PRB3 (11715151_x_at) / RFU TUBB4B (11761932_at) / Fold change /veh TUBB4B (11761932_at) / RFU CAPN14 (11732068_a_at) / Fold change /veh CAPN14 (11732068_a_at) / RFU TMCC2 (11721928_a_at) / Fold change /veh TMCC2 (11721928_a_at) / RFU IRGQ (11745062_a_at) / Fold change /veh IRGQ (11745062_a_at) / RFU FAM174B (11720279_a_at) / Fold change /veh FAM174B (11720279_a_at) / RFU TMPRSS4 (11748680_a_at) / Fold change /veh TMPRSS4 (11748680_a_at) / RFU FAM212B (11763350_a_at) / Fold change /veh FAM212B (11763350_a_at) / RFU PLEKHG5 (11743358_a_at) / Fold change /veh PLEKHG5 (11743358_a_at) / RFU ZSCAN30 (11745921_a_at) / Fold change /veh ZSCAN30 (11745921_a_at) / RFU CMKLR1 (11741424_a_at) / Fold change /veh CMKLR1 (11741424_a_at) / RFU LOC101060620 /// MAPK8IP1 (11723275_at) / Fold change /veh LOC101060620 /// MAPK8IP1 (11723275_at) / RFU SPTSSB (11747773_x_at) / Fold change /veh SPTSSB (11747773_x_at) / RFU PRSS12 (11739890_at) / Fold change /veh PRSS12 (11739890_at) / RFU BIN1 (11741810_x_at) / Fold change /veh BIN1 (11741810_x_at) / RFU WNT11 (11732464_a_at) / Fold change /veh WNT11 (11732464_a_at) / RFU C10orf10 (11716521_a_at) / Fold change /veh C10orf10 (11716521_a_at) / RFU C5orf56 (11738089_at) / Fold change /veh C5orf56 (11738089_at) / RFU CYB561 (11721691_x_at) / Fold change /veh CYB561 (11721691_x_at) / RFU ANKRD19P (11752326_a_at) / Fold change /veh ANKRD19P (11752326_a_at) / RFU OR2T12 /// OR2T33 /// OR2T8 (11738714_s_at) / Fold change /veh OR2T12 /// OR2T33 /// OR2T8 (11738714_s_at) / RFU VCAN (11748164_a_at) / Fold change /veh VCAN (11748164_a_at) / RFU JSRP1 (11732532_at) / Fold change /veh JSRP1 (11732532_at) / RFU KRTAP10-11 (11738290_x_at) / Fold change /veh KRTAP10-11 (11738290_x_at) / RFU MYO3A (11730013_a_at) / Fold change /veh MYO3A (11730013_a_at) / RFU EBF3 (11725865_a_at) / Fold change /veh EBF3 (11725865_a_at) / RFU CAMK2N1 (11719241_x_at) / Fold change /veh CAMK2N1 (11719241_x_at) / RFU C5orf56 (11738088_a_at) / Fold change /veh C5orf56 (11738088_a_at) / RFU OLFML3 (11715873_a_at) / Fold change /veh OLFML3 (11715873_a_at) / RFU LOC100653217 /// NTM (11731650_a_at) / Fold change /veh LOC100653217 /// NTM (11731650_a_at) / RFU MAPK11 (11762145_a_at) / Fold change /veh MAPK11 (11762145_a_at) / RFU FIZ1 (11724087_x_at) / Fold change /veh FIZ1 (11724087_x_at) / RFU OASL (11726364_x_at) / Fold change /veh OASL (11726364_x_at) / RFU SOX15 (11748057_x_at) / Fold change /veh SOX15 (11748057_x_at) / RFU CD79A (11719716_a_at) / Fold change /veh CD79A (11719716_a_at) / RFU HIST1H1D (11736915_at) / Fold change /veh HIST1H1D (11736915_at) / RFU CASKIN2 (11723855_a_at) / Fold change /veh CASKIN2 (11723855_a_at) / RFU LOC730098 (11760151_x_at) / Fold change /veh LOC730098 (11760151_x_at) / RFU OR4N2 (11742367_at) / Fold change /veh OR4N2 (11742367_at) / RFU PRRT2 (11749266_a_at) / Fold change /veh PRRT2 (11749266_a_at) / RFU SNX32 (11753110_a_at) / Fold change /veh SNX32 (11753110_a_at) / RFU CDHR5 (11726645_a_at) / Fold change /veh CDHR5 (11726645_a_at) / RFU RCAN1 (11760418_a_at) / Fold change /veh RCAN1 (11760418_a_at) / RFU FAM167A (11723789_a_at) / Fold change /veh FAM167A (11723789_a_at) / RFU FAM26E (11764081_at) / Fold change /veh FAM26E (11764081_at) / RFU ISYNA1 (11749810_s_at) / Fold change /veh ISYNA1 (11749810_s_at) / RFU ACY1 (11761880_at) / Fold change /veh ACY1 (11761880_at) / RFU 11764098_at / Fold change /veh 11764098_at / RFU SAMD14 (11745864_x_at) / Fold change /veh SAMD14 (11745864_x_at) / RFU NPB (11741838_a_at) / Fold change /veh NPB (11741838_a_at) / RFU TMPRSS6 (11731388_a_at) / Fold change /veh TMPRSS6 (11731388_a_at) / RFU KRTAP10-2 (11738614_at) / Fold change /veh KRTAP10-2 (11738614_at) / RFU ARHGAP8 /// PRR5-ARHGAP8 (11727945_x_at) / Fold change /veh ARHGAP8 /// PRR5-ARHGAP8 (11727945_x_at) / RFU KRTAP5-7 /// NADSYN1 (11734609_at) / Fold change /veh KRTAP5-7 /// NADSYN1 (11734609_at) / RFU RASL12 (11751679_a_at) / Fold change /veh RASL12 (11751679_a_at) / RFU CDKN2B (11736163_a_at) / Fold change /veh CDKN2B (11736163_a_at) / RFU PRF1 (11729649_at) / Fold change /veh PRF1 (11729649_at) / RFU, ZNF638 /// ZNF638-IT1 / Fold change vs veh, ZNF638 /// ZNF638-IT1 / RFU, PANK3 / Fold change vs veh, PANK3 / RFU, SH3YL1 / Fold change vs veh, SH3YL1 / RFU, ZEB2 / Fold change vs veh, ZEB2 / RFU, NRIP1 / Fold change vs veh, NRIP1 / RFU, PTTG1IP / Fold change vs veh, PTTG1IP / RFU, CAPN2 / Fold change vs veh, CAPN2 / RFU, MED14 / Fold change vs veh, MED14 / RFU, SNORA58 / Fold change vs veh, SNORA58 / RFU, C1orf63 / Fold change vs veh, C1orf63 / RFU, LRRFIP1 / Fold change vs veh, LRRFIP1 / RFU, NDUFAF7 / Fold change vs veh, NDUFAF7 / RFU, SLC12A2 / Fold change vs veh, SLC12A2 / RFU, IBTK / Fold change vs veh, IBTK / RFU, ESF1 / Fold change vs veh, ESF1 / Fold change vs veh, TMEM50B / RFU, TAOK1 / Fold change vs veh, TAOK1 / RFU, ACBD3 / Fold change vs veh, ACBD3 / RFU, TMA16 / Fold change vs veh, TMA16 / RFU, RWDD3 / Fold change vs veh, RWDD3 / RFU, BCAT1 / Fold change vs veh, BCAT1 / RFU, EDEM3 / Fold change vs veh, EDEM3 / RFU, TMEM33 / Fold change vs veh, TMEM33 / RFU, WDR75 / Fold change vs veh, WDR75 / RFU, AHCTF1 / Fold change vs veh, AHCTF1 / RFU, TFRC / Fold change vs veh, TFRC / RFU, ZDHHC17 / Fold change vs veh, ZDHHC17 / RFU, NOM1 / Fold change vs veh, NOM1 / RFU, ARL8B / Fold change vs veh, ARL8B / RFU, ZBTB11 / Fold change vs veh, ZBTB11 / RFU, TAMM41 / Fold change vs veh, TAMM41 / RFU, KIAA1704 /// LOC100996395 / Fold change vs veh, KIAA1704 /// LOC100996395 / RFU, ING1 / Fold change vs veh, ING1 / RFU, TRMT61B / Fold change vs veh, TRMT61B / RFU, FUBP3 / Fold change vs veh, FUBP3 / RFU, TP53 / Fold change vs veh, TP53 / RFU, TNKS2 / Fold change vs veh, TNKS2 / RFU, ZFP14 / Fold change vs veh, ZFP14 / RFU, ACTR2 / Fold change vs veh, ACTR2 / RFU, PPP3R1 / Fold change vs veh, PPP3R1 / RFU, PIK3R1 / Fold change vs veh, PIK3R1 / RFU, HNRNPA1 / Fold change vs veh, HNRNPA1 / RFU, RNF170 / Fold change vs veh, RNF170 / RFU, ZNF28 / Fold change vs veh, ZNF28 / RFU, RNGTT / Fold change vs veh, RNGTT / RFU, OGT / Fold change vs veh, OGT / RFU, BRD1 / Fold change vs veh, BRD1 / RFU, MARS / Fold change vs veh, MARS / RFU, ZNF655 / Fold change vs veh, ZNF655 / RFU, FAHD1 / Fold change vs veh, FAHD1 / RFU, BDP1 / Fold change vs veh, BDP1 / RFU, LRRCC1 / Fold change vs veh, LRRCC1 / RFU, ARID1A / Fold change vs veh, ARID1A / RFU, ZNF146 / Fold change vs veh, ZNF146 / RFU, ZNF330 / Fold change vs veh, ZNF330 / RFU, GPN3 / Fold change vs veh, GPN3 / RFU, C9orf123 / Fold change vs veh, C9orf123 / RFU, N4BP2L2 / Fold change vs veh, N4BP2L2 / RFU, ARFIP1 / Fold change vs veh, ARFIP1 / RFU, FAM179B / Fold change vs veh, FAM179B / RFU, BCL10 / Fold change vs veh, BCL10 / RFU, UHRF1BP1L / Fold change vs veh, UHRF1BP1L / RFU, BET1 / Fold change vs veh, BET1 / RFU, CNOT2 / Fold change vs veh, CNOT2 / RFU, ZNF268 / Fold change vs veh, ZNF268 / Fold change vs veh, ZNF507 / RFU, DGCR2 / Fold change vs veh, DGCR2 / RFU, WDSUB1 / Fold change vs veh, WDSUB1 / Fold change vs veh, HSP90B1 /// MIR3652 / RFU, ADSS / Fold change vs veh, ADSS / RFU, GK / Fold change vs veh, GK / RFU, ZNF148 / Fold change vs veh, ZNF148 / RFU, TAF9 / Fold change vs veh, TAF9 / RFU, SLC1A5 / Fold change vs veh, SLC1A5 / RFU, SLMO2 / Fold change vs veh, SLMO2 / RFU, ABCC4 / Fold change vs veh, ABCC4 / RFU, LOC101060439 /// RAP1B / Fold change vs veh, LOC101060439 /// RAP1B / RFU, RFX7 / Fold change vs veh, RFX7 / RFU, GTPBP10 / Fold change vs veh, GTPBP10 / RFU, CNEP1R1 / Fold change vs veh, CNEP1R1 / RFU, BIVM-ERCC5 /// ERCC5 / Fold change vs veh, BIVM-ERCC5 /// ERCC5 / RFU, ILF3 / Fold change vs veh, ILF3 / RFU 11762660_at / Fold change /veh 11762660_at / RFU VCAN (11757783_s_at) / Fold change /veh VCAN (11757783_s_at) / RFU DDX43 (11728927_at) / Fold change /veh DDX43 (11728927_at) / RFU KRT8 (11758188_x_at) / Fold change /veh KRT8 (11758188_x_at) / RFU NKD1 (11759106_at) / Fold change /veh NKD1 (11759106_at) / RFU SRD5A1 (11742802_a_at) / Fold change /veh SRD5A1 (11742802_a_at) / RFU TPSAB1 /// TPSB2 (11721975_s_at) / Fold change /veh TPSAB1 /// TPSB2 (11721975_s_at) / RFU GSTM3 (11746129_a_at) / Fold change /veh GSTM3 (11746129_a_at) / RFU IL23R (11737362_x_at) / Fold change /veh IL23R (11737362_x_at) / RFU TMEM51 (11727254_a_at) / Fold change /veh TMEM51 (11727254_a_at) / RFU PIWIL2 (11732686_x_at) / Fold change /veh PIWIL2 (11732686_x_at) / RFU ORM1 (11744905_x_at) / Fold change /veh ORM1 (11744905_x_at) / RFU CCDC152 (11743942_at) / Fold change /veh CCDC152 (11743942_at) / RFU ECM1 (11717891_a_at) / Fold change /veh ECM1 (11717891_a_at) / RFU IL23R (11748794_a_at) / Fold change /veh IL23R (11748794_a_at) / RFU TNFAIP8L3 (11732012_x_at) / Fold change /veh TNFAIP8L3 (11732012_x_at) / RFU MBOAT4 (11741988_at) / Fold change /veh MBOAT4 (11741988_at) / RFU 11764193_at / Fold change /veh 11764193_at / RFU TMEM53 (11763286_at) / Fold change /veh TMEM53 (11763286_at) / RFU MAGEB2 (11727129_at) / Fold change /veh MAGEB2 (11727129_at) / RFU TMEM200A (11744735_a_at) / Fold change /veh TMEM200A (11744735_a_at) / RFU CCDC152 (11751479_a_at) / Fold change /veh CCDC152 (11751479_a_at) / RFU FAM211A (11726209_a_at) / Fold change /veh FAM211A (11726209_a_at) / RFU RGS16 (11746705_a_at) / Fold change /veh RGS16 (11746705_a_at) / RFU VCAN (11755009_s_at) / Fold change /veh VCAN (11755009_s_at) / RFU RHOB (11743442_s_at) / Fold change /veh RHOB (11743442_s_at) / RFU RGS16 (11720943_a_at) / Fold change /veh RGS16 (11720943_a_at) / RFU RGS16 (11720944_at) / Fold change /veh RGS16 (11720944_at) / RFU, VPS4B / Fold change vs veh, VPS4B / RFU, CREB1 / Fold change vs veh, CREB1 / RFU, DNAJC13 / Fold change vs veh, DNAJC13 / RFU, GNAQ / Fold change vs veh, GNAQ / RFU, CDK5R1 / Fold change vs veh, CDK5R1 / RFU, ZRANB3 / Fold change vs veh, ZRANB3 / RFU, CUL4A / Fold change vs veh, CUL4A / RFU, CCNY / Fold change vs veh, CCNY / RFU, UFL1 / Fold change vs veh, UFL1 / RFU, COG3 / Fold change vs veh, COG3 / RFU, DIAPH2 / Fold change vs veh, DIAPH2 / RFU, SKA2 / Fold change vs veh, SKA2 / RFU, AFF3 / Fold change vs veh, AFF3 / RFU, LMF1 / Fold change vs veh, LMF1 / RFU, IPO11 / Fold change vs veh, IPO11 / RFU, DFFB / Fold change vs veh, DFFB / RFU, FOXP1 / Fold change vs veh, FOXP1 / RFU, CARD8 / Fold change vs veh, CARD8 / RFU, STRN3 / Fold change vs veh, STRN3 / RFU, ADK / Fold change vs veh, ADK / RFU, RASSF2 / Fold change vs veh, RASSF2 / RFU, WIPF1 / Fold change vs veh, WIPF1 / RFU, LARP1B / Fold change vs veh, LARP1B / RFU, RASA1 / Fold change vs veh, RASA1 / RFU, RB1 / Fold change vs veh, RB1 / RFU, PPFIA1 / Fold change vs veh, PPFIA1 / RFU, MAT2A / Fold change vs veh, MAT2A / RFU, CCT5 / Fold change vs veh, CCT5 / RFU, WDR92 / Fold change vs veh, WDR92 / RFU, CUX1 / Fold change vs veh, CUX1 / RFU, TTC7A / Fold change vs veh, TTC7A / RFU, TMEM135 / Fold change vs veh, TMEM135 / RFU, DEPTOR / Fold change vs veh, DEPTOR / RFU, CPM / Fold change vs veh, CPM / RFU, DNAJB6 / Fold change vs veh, DNAJB6 / RFU, CACNA2D3 / Fold change vs veh, CACNA2D3 / RFU, DTX4 / Fold change vs veh, DTX4 / RFU, TFCP2 / Fold change vs veh, TFCP2 / RFU, GMCL1 /// GMCL1P1 / Fold change vs veh, GMCL1 /// GMCL1P1 / RFU, AEBP2 / Fold change vs veh, AEBP2 / RFU, SNHG1 /// SNORD22 /// SNORD25 /// SNORD26 /// SNORD27 /// SNORD28 /// SNORD29 /// SNORD31 / Fold change vs veh, SNHG1 /// SNORD22 /// SNORD25 /// SNORD26 /// SNORD27 /// SNORD28 /// SNORD29 /// SNORD31 / Fold change (Aza/veh), C12orf56 (ProbeSet 11735607_a_at) / Fold change (ACY-1035/veh), C12orf56 (ProbeSet 11735607_a_at) / Fold change (Aza/veh), FGFR1OP (ProbeSet 11751329_s_at) / Fold change (ACY-1035/veh), FGFR1OP (ProbeSet 11751329_s_at) / Fold change (Aza/veh), VPS36 (ProbeSet 11739960_a_at) / Fold change (ACY-1035/veh), VPS36 (ProbeSet 11739960_a_at) / RFU SYPL1 (11715823_x_at) / Fold change /veh SYPL1 (11715823_x_at) / RFU IGFBP7 (11715501_s_at) / Fold change /veh IGFBP7 (11715501_s_at) / RFU REEP3 (11722064_at) / Fold change /veh REEP3 (11722064_at) / RFU IGLL1 (11728026_x_at) / Fold change /veh IGLL1 (11728026_x_at): dose or concentration left out as unconfirmed
Conditions: ProbeSet 11756954_s_at; LIST B

Nc1ncn([C@@H]2O[C@H](CO)[C@@H](O)[C@H]2O)c(=O)n1 [azacitidine]
Fold change vs veh, ZEB2: 0.83
